Measured values published in patent publication US20250003953A1, “Methods and Model Systems for Assessing Therapeutic Properties of Candidate Agents and Related Computer Readable Media and Systems” (The Regents of the University of California, priority 2021, published 2025).

What was measured:
H2030 (KRAS.G12C) cells = test: Seahorse assay measuring oxygen consumption; assay type: cell-based, human; conditions: 2 h after treatment
[1] = test system: KRAS.G12C cell lines in a cell pool; test: GENEVA pool gene set expression after drug, in vitro; assay type: cell-based, human; conditions: post-drug treatment
Source text: The GENEVA datasets were compared where GENEVA pools were drugged with the KRAS.G12C inhibitor ARS1620, conducted both in vitro and in vivo. Specifically, the in vitro data were compared against the in vivo data to look for differences and similarities attributable to the context of the model systems used. […] As a validation study, a combination therapy multi-arm in vivo mouse study was designed to test the efficacy of an EMT inhibitor, Galunisertib in combination with ARS1620.
For in vivo and in vitro datasets, we combined the median z score results determined in Example 8 and t-test results, respectively, were combined on a paired geneset by geneset basis. The combined zscore results table from both in vivo and in vitro was then used to calculate an “in vivo Specificity Score” as follows:
For each geneset, “in vivo Specificity Score”=[(in vivo median zscore)−(in vitro median zscore)]/mean([log 10 (in vivo pvalue), log 10 (in vitro pvalue)]

lipid peroxidation = test: Lipid peroxidation live cell probe dose curve and survival kinetics; assay type: cell-based
Source text: FIG. 7B plots gene expression of anti-ferroptotic genes for each cell line in response to increasing ARS1620 dosage. […] Lipid peroxidation and survival kinetics cross over around IC50 in all compounds indicating ARS1620 performs as a ferroptosis inducing agent.
(§1) Among this group of genes were FTH1 and FTL, the two components of the Ferritin Complex, which is responsible for sequestration of labile free iron. Using a lipid peroxidation live cell probe, lipid peroxidation—one of the hallmark phenotypes of ferroptosis—was measured in response to ARS-1620 treatment.

[2] = test system: GENEVA cell pool of cell lines; test: GENEVA cell pool drug sensitivity by relative cell counts from single-cell RNA sequencing; assay type: cell-based, human; conditions: pre/post drug treatment relative cell counts from GENEVA pools
Source text: This example is directed at discovery of genetic drivers of sensitivity to a drug compound by way of simultaneous inference of phenotype from a GENEVA cell pool. Long-duration growth balanced cell pools were created and subjected to drug treatment. After assignment to patient of origin and drug treatment condition using genetic demultiplexing using the method as described in Example 5 and sample hashing demultiplexing as described in Example 6, datasets were obtained with discrete numbers of cells in each drug treatment condition as evidenced in FIG. 2A,B,C,D,E,F. The relative number of viable cells remaining in each drug treatment condition for each cell type was counted and this drug sensitivity information was used as the response variable for a linear model. […]
The number of cells in each drug condition were counted according to the origin cell type. […]
fitness for cell type Ci against Drug Dx based on proportional representation was calculated as: […]
For each drug or vehicle Dx, the total number of cells was counted in each condition, the geometric mean of the total cell counts was calculated, and the total number of cells in each condition was divided by the geometric mean of the cell counts to obtain a normalization ratio. […]
For each of these fitness calculations, the relative fitness was calculated as: […]

[3] = test system: KRAS.G12C lines in GENEVA pools; test: GENEVA pool transcriptome changes in cells surviving drug treatment; assay type: cell-based, human
Experimental: Long-time course GENEVA pools were created to understand how ARS1620 achieved durable tumor regression in human cells. A seven day drug treatment regimen was conducted and transcriptome changes in surviving cells were analyzed.
For each cell line, single cell datasets were divided into two sub-datasets: vehicle treated and drug treated. Differential expression was calculated between two single-cell datasets using a two-sample t-test. A differential expression score was obtained for each gene from two-sample t-test output. All cell lines were repeated until done and all differential expression scores for genes were saved into aggregated differential expression tables by cell line. Cells were grouped according to their phenotypic sensitivity to the tested compound. For tested compounds, the genetic driver of the compound sensitivity was discovered as described previously herein. Using the genetic driver, cell lines were classified by presence or absence of the driver into two categories, sensitive vs non-sensitive. The differential expression matrix was grouped into sensitive and insensitive cell lines. z-scores for genes within each cell line were calculated, genes were grouped by gene sets from biological geneset databases curated from scientific literature, and two sample T-tests with grouped z-scores were performed. First, all differential expression scores were normalized to the same scale by z-score within each cell line. […] Summary statistics from each gene test were saved and the z-score difference was calculated. The biological mechanism of action of the molecule of interest was determined by rank ordering the median z score results from each geneset to determine the relative upregulation or downregulation of genesets in response to the compound.
as §1

C=CC(=O)N1CCN(c2ncnc3c(F)c(-c4c(O)cccc4F)c(Cl)cc23)CC1 [ARS1620]
oxygen consumption / mitochondrial respiration (H2030 (KRAS.G12C) cells): significant difference in functional oxygen consumption
endothelial-mesenchymal transition hallmark gene expression signature [1]: showed no difference in vitro
lipid peroxidation dose response (lipid peroxidation; 48 h, fluorescent lipid peroxidation sensor): induced lipid peroxidation in a dose dependent fashion
cross-over of survival and normalized lipid peroxidation curves (lipid peroxidation; dose curves): crossed over around the IC50 survival value
relative sensitivity of individual cell types (most sensitive cell lines) [2]: KRAS.G12C mutant harboring
percentage of mitochondrial reads in surviving cell subpopulations ([3]; after drug treatment, within each cell line of the pool): significantly lower percentage of mitochondrial reads relative to overall reads
expression of anti-ferroptotic genes in surviving cells ([3]; long-term treatment, across KRAS.G12C lines): Consistently upregulated genes across cell lines were found to be involved in an anti-ferroptotic response mechanism
expression of mitochondrially encoded genes in surviving cells ([3]; seven day drug treatment regimen): Mitochondrially encoded genes were downregulated
